pKd: −log10 of the molar value.
Target: T1, GSK3β (Homo sapiens, UniProt P49841)
T1 construct: gene GSK3B
Assay: BLI with immobilised biotinylated recombinant GSK-3β; supported by mobility shift kinase assay (IC50 […]), Lineweaver-Burk, CETSA, DARTS
Format: binding

T1 sequence (P49841 whole entry): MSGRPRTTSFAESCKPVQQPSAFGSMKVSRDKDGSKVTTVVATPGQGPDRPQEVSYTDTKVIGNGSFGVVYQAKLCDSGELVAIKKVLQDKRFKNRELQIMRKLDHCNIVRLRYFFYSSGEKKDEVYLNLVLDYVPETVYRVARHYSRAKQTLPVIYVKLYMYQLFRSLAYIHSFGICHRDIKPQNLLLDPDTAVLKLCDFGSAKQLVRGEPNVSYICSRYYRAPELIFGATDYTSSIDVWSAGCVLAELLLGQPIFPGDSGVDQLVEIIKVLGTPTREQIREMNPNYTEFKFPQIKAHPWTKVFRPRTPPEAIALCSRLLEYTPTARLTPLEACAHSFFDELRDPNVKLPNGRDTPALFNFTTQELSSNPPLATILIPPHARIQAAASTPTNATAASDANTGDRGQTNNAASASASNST

SMILES: O=C(c1cc(Br)ccc1O)c1cc(O)c(O)cc1Br [LM49, 5,2′-dibromo-2,4′,5′-trihydroxydiphenylmethanone]
- pKd: 3.91

Reference: PMC9550195, “GSK3β-dependent lysosome biogenesis: An effective pathway to mitigate renal fibrosis with LM49” (Frontiers in Pharmacology, 2022)
